In patent publication US7476729B2, “Dbait and uses thereof” (Institut Curie, priority 2003, dated 2009):

What was measured:
DNA-PK = molecular target: T1, DNA-PK (Homo sapiens, UniProt P12956+P13010+P78527); experiment: DNA-dependent protein kinase (DNA-PK) activity assay in Hep2 nuclear extract; type: biochemical; conditions: 2 μg Dbait, 1.5 μg Hep2 nuclear protein extract
T1 construct: Increasing amounts of Hep2 nuclear extract (cleaned of endogenous DNA by DEAE-Sepharose filtration) were assayed; endogenous in cells; host or cells: Hep2 cells (nuclear extract, DNA removed by DEAE-Sepharose filtration)
Experimental: (§1) DNA-PK activity was monitored using the kit SignaTECT DNA-dependent Protein Kinase Assay System (Promega, Madison, USA). Increasing amounts of Hep2 nuclear extract (cleaned of endogenous DNA by DEAE-Sepharose filtration) were assayed in the presence of 250 nM Dbait. Extract, biotinylated peptide substrate and various amount of nuclear extract were incubated 5 minutes at 30° C. with (γ-^32P)ATP according to manufacturer indications. The biotinylated substrate was capture on streptavidine membrane, washed and counted in a scintillation counter. Percentage of phosphorylation is calculated by dividing the bound radioactivity by the total count of (γ-^32P)ATP per sample. Reactions (10 μl) were carried out in 60 mM KOAc, 100 μg/ml BSA, 0.5 mM Mg(Cl)2, 1 μl T4 DNA ligase 10× buffer (Promega, Madison, USA). Nuclear extract and Dbait were incubated 2 minutes before addition of ^32P-labeled DNA (10 ng). Samples were incubated various time at 37° C. before ligation being stopped by 20 mM EDTA and 1 mg/ml Proteinase K addition. Ligation products were analyzed by electrophoresis through 0.7% agarose gels followed by autoradiography and quantification by phosphorimaging.
The kinase activity depended directly on the length and structure of the double-stranded ‘stem’ of the Dbait molecule. […] In addition, various backbone modifications (phosphothioate, methyphosphonate, 3′-3′ linkage) at the free blunt end (up to 3-bp), as well as the internally tagged ligands (e.g. fluorescent dyes), are capable of activating DNA-PK activity.

SK28 xenografted tumors = experiment: Radiosensitization of SK28 melanoma xenografted on nude mice; type: in vivo; conditions: SK, 6 × 5 Gy, 6 × 60 μg (3 nmole); for Relative risk: reference C* (Mock + irradiation)
Experimental: The protocol of Hep2 was described in FIG. 4.3. Other tumors were treated by a modified protocol where a 5 Gy fractionated irradiation was applied in three consecutive days, and followed four day rest, and the treatment was repeated once. The total irradiation dose (6×5 Gy) is equal to that of the protocol used to treat Hep2 tumor (15×2 Gy).
Descriptive analyses of the tumor response were performed for each treatment and each tumor type. Day 1 was the day of the first treatment session. […] Median lifetime was estimated according to the Kaplan-Meier method. TGD was calculated by subtracting the mean tumor volume quadrupling time of the control group from tumor volume quadrupling times of individual mice in each treated group. The mean TGD was calculated for each treated group using the individual measurements.
The analysis used S-Plus 6.2 version software (MathSoft Inc., Seattle, Wash.) and statEL (ad Science, Paris, France). A global Log Rank was first performed for each group with a same tumor type. Then treatments with Dbait were compared to the mock-treated control. All tests were considered significant at the 0.05 significance level.

[1] = system: DNA end-joining reaction in the nuclear extracts of Hep2 cells; experiment: DNA end-joining assay in Hep2 nuclear extract; type: biochemical, human; conditions: for ligation of DNA fragments in cell-free assay: 2 h incubation with various Dbait
Experimental: DNA end-joining was monitored by incubating ^32P-labeled 605-bp linear DNA fragments with Hep2 nuclear extract in the presence of various Dbait molecules. Ligation products migrate as dimers, trimers or tetramers, starting 605 bp monomer.
Approximately 16% of the ^32P-labeled blunt linear duplex DNA molecules were ligated into dimers and trimers during the first 2 h of incubation. The amount of high molecular weight ligation products increased up to 30% of the total input DNA after 16 h. […] In most experiments, Dbait32H (SEQ ID NO: 1) was added simultaneously with the labeled DNA fragments to the nuclear extract.
Various Dbait molecules were tested for their effect on the cell-free assay by adding the molecules to nuclear extract and incubating for 2 h with the DNA fragments.
as §1

| Substance | DNA-PK activation (kinase activity) (DNA-PK) | Mean % TGD (SK28 xenografted tumors) [%] | Mean TGD (SK28 xenografted tumors) | Median survival time (SK28 xenografted tumors) [days] | Relative risk (SK28 xenografted tumors) | ligation of DNA fragments in cell-free assay [1] | Number of cured mice (SK28 xenografted tumors) | DNA end-joining (ligation) ([1]; Dbait added 30 min after the nuclear extract (data not shown)) | DNA end-joining (ligation of 32P-labeled linear DNA fragments) ([1]; Dbait added simultaneously with fragments, 100-fold molar excess) | DNA end-joining (ligation) ([1]; Dbait incubated with the extract for 30 min before addition of fragments) |
| --- | --- | --- | --- | --- | --- | --- | --- | --- | --- | --- |
| Dbait8H: hairpin double strand DNA with a stem of 8-bp (DNA ACGCACGG; DNA, backbone not given here; hairpin, hexaethyleneglycol loop, 3-bp phosphorothioate at free blunt end) | inefficient | 194 | 19 | 76 | 0.68 | largely unaffected |  |  |  |  |
| Dbait16H: hairpin double strand DNA with a stem of 16-bp (DNA ACGCACGGGTGTTGGG; DNA, backbone not given here; hairpin DNA with hexaethyleneglycol loop, 3-bp phosphorothioate at free blunt end) | inefficient |  |  |  |  | inhibited the ligation as efficiently as Dbait32H |  |  |  |  |
| Dbait32H: hairpin double strand DNA with a stem of 32-bp, hexaethyleneglycol linker, phosphorothioate at the free blunt end (DNA ACGCACGGGTGTTGGGTCGTTTGTTCGGATCT; DNA, backbone not given here; hairpin, hexaethyleneglycol loop, 3-bp phosphorothioate at free blunt end) |  | 422 | 64 | 176 | 0.22 |  | 2 | no inhibition of the ligation | strongly inhibited | extent of inhibition was similar |
| Dbait32ss: 32-nt single strand DNA (SEQ ID NO: 1) (DNA ACGCACGGGTGTTGGGTCGTTTGTTCGGATCT; DNA, backbone not given here) |  |  |  |  |  | largely unaffected |  |  |  |  |
